Laboratory results reported in patent US20150011528A1, “PHENYLIMIDE-CONTAINING BENZOTHIAZOLE DERIVATIVE OF ITS SALT AND PHARMACEUTICAL COMPOSITION COMPRISING THE SAME” (YUHAN CORPORATION, priority 2011, published 2015).

Experiments:
Type in all cases: cell-based
[1] = molecular target: T1, binding between KRS and AIMP3 (Homo sapiens, UniProt Q15046); assay: Yeast Two Hybrid specificity test, LexA-KRS / B42-AIMP3 co-transformed yeast cells; details: 1 μL of 20 mM DMSO solution per 200 μL culture; 30° C., 6 days; absorbance 540 nm; non-treated control = 100%
T1 construct: expressed in transfected cells; host or cells: yeast cells (co-transformed)
T1 sequence (Q15046 whole entry): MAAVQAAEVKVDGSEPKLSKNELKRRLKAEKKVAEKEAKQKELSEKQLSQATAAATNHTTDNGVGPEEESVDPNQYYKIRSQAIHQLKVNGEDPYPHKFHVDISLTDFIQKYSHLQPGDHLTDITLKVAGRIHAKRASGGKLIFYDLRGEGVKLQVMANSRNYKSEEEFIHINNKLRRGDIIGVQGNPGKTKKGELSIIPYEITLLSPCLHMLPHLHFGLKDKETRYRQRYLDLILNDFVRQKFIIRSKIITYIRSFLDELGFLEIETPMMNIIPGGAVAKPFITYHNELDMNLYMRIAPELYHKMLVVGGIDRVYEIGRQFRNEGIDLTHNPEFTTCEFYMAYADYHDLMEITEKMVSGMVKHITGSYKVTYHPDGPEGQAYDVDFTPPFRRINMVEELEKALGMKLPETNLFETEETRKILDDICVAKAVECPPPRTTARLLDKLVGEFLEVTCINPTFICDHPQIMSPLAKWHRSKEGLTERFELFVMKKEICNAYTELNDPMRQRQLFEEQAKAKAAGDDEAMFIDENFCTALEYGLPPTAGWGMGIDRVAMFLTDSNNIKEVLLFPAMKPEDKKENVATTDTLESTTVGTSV
Description: (§1) And also, specificity of the inhibitory activity was evaluated, using the yeast cells cotransformed with the LexA-KRS vector and the B42-AIMP2 vector; and the yeast cells co-transformed with the LexA-KRS vector and the B42-AIMP3 vector, which were respectively prepared according to WO2011/056021. The co-transformation was carried out using the Yeastmaker yeast transformation system2 kit (Clontech), according to the manufacturer's instruction. […] The cultured yeast cells were diluted with the said galactose medium, until the absorbance at 540 nm attains to about 0.15 to 0.2. The diluted culture (200 μL), containing the yeast cells, was added to each well of a 96-well plate. Each test compound was dissolved in dimethyl sulfoxide at a concentration of 20 mM and then the resulting solutions (1 μL) were added to each well. The plate was cultured at 30° C. for 6 days and then the absorbance of each well was measured at 540 nm. The respective yeast cell proliferation rates (%) in the treated samples were calculated in comparison with those of the non-treated control (100%) and the results thereof are shown in Table 1 below.

[2] = molecular target: T2, interaction between the KRS protein and the laminin receptor (LR) (Homo sapiens, UniProt Q15046); assay: Yeast Two Hybrid inhibition of the interaction between the KRS protein and the laminin receptor (LR); details: 1 μL of 20 mM DMSO solution per 200 μL culture; 30° C., 6 days; absorbance 540 nm; non-treated control = 100%
T2 construct: expressed in transfected cells; host or cells: yeast EGY/SH cells
T2 sequence (Q15046 whole entry): as above
Description: The inhibitory activity against the interaction between the KRS protein and the laminin receptor (LR) was evaluated according to the Yeast Two Hybrid method described in WO2011/056021. According to the disclosures of WO2011/056021, we prepared a vector obtained by cloning the KRS gene in the LexA vector (Clontech) and a vector obtained by cloning the LR gene in the B42 vector (Clontech). The yeast cells, i.e., EGY/SH cells were co-transformed with the LexA-KRS vector and the B42-LR vector. The co-transformation was carried out using the Yeastmaker yeast transformation system2 kit (Clontech), according to the manufacturer's instruction. […] The cultured yeast cells were diluted with the said galactose medium, until the absorbance at 540 nm attains to about 0.15 to 0.2. The diluted culture (200 μL), containing the yeast cells, was added to each well of a 96-well plate. Each test compound was dissolved in dimethyl sulfoxide at a concentration of 20 mM and then the resulting solutions (1 μL) were added to each well. The plate was cultured at 30° C. for 6 days and then the absorbance of the each well was measured at 540 nm.
as §1
When KRS is bound to LR, the trans-activation domain is come close to the DNA-binding domain and the genes for synthesizing essential amino acids are expressed, which leads to normal growth of the transformed yeasts, thereby increasing the absorbance.

[3] = molecular target: T3, binding between KRS and AIMP2 (Homo sapiens, UniProt Q15046); assay: Yeast Two Hybrid specificity test, LexA-KRS / B42-AIMP2 co-transformed yeast cells; details: 1 μL of 20 mM DMSO solution per 200 μL culture; 30° C., 6 days; absorbance 540 nm; non-treated control = 100%
T3 construct: expressed in transfected cells; host or cells: yeast cells (co-transformed)
T3 sequence (Q15046 whole entry): as above
Description: as §1

A549 cells = assay: Cell Migration Assay (transwell, laminin); details: Homo sapiens, laminin 10 μg/mL in lower well, test compounds 0.39˜100 μM, 6 hours at 37° C.
Description: Cell migration was measured with a 24-well transwell having a polycarbonate membrane (8.0 μm pore size, Costar) at the bottom of the upper chamber. Each lower well was treated with laminin (10 μg/mL) and test compounds (0.39˜100 μM) along with a serum-free RPMI1640 medium. A549 cells (Korean Cell Line Bank) were suspended in a serum-free RPMI1640 medium at a concentration of 1×10^6 cells/mL and then the test compounds were added thereto at the indicated concentrations. Each resulting solution (100 μL) was added to the upper chamber. The cells were cultured at 37° C. for 6 hours in a CO2 incubator. The upper chamber was taken out and then the cells were fixed with PBS containing 70% methyl alcohol for 10 minutes, followed by washing with PBS twice. The cells were stained with hematoxylin (Sigma) for 10 minutes and then washed with distilled water. The non-migrated cells were removed from the upper portion of the polycarbonate membrane with a cotton swab. The membranes were excised and separated from the chamber, and then mounted to a slide using a gel mount reagent (Biomeda, USA). The migrated cells (attached to the lower face of the membrane) were counted at three randomly selected sites under a microscope (×20). The cell counting was performed with the Image J program. From the counted cell numbers, each IC50 value was calculated by non-linear regression curve fit using the “GraphPad Prism” program.
The cells are pulled by laminin residing in the lower chamber and then passed through the polycarbonate membrane, so as to attach to the lower face of the membrane.

SMILES	Yeast cell proliferation rates KRS-AIMP3 (%) [1] [%]	Yeast cell proliferation rates KRS-LR (%) [2] [%]	Yeast cell proliferation rates KRS-AIMP2 (%) [3] [%]	IC50 (A549 cells) [µM]
CCOc1ccc2c(c1)sc(=NC(=O)c1cccc(Cl)c1)n2C(C)C(=O)O (centres unmarked) [Example 55, 2-{2-[(3-chlorobenzoyl)imino]-6-ethoxybenzo[d]thiazol-3(2H)-yl}propionic acid]	105.3	41.4	106.0	22
CCC(C(=O)O)n1c(=NC(=O)c2cccc(Cl)c2)sc2cc(C)ccc21 (centres unmarked) [Example 59, 2-{2-[(3-chlorobenzoyl)imino]-6-methylbenzo[d]thiazol-3(2H)-yl}butanoic acid]	80.8	31.7	97.7	29.6
CCC(C(=O)O)n1c(=NC(=O)c2ccc(C(F)(F)F)cc2)sc2ccccc21 (centres unmarked) [Example 64, 2-{2-[4-(trifluoromethyl)benzoylimino]benzo[d]thiazol-3(2H)-yl}butanoic acid]	104.1	28.8	99.2	20.1
CCC(C(=O)O)n1c(=NC(=O)c2ccc(C)cc2)sc2c(F)cccc21 (centres unmarked) [Example 93, 2-[7-fluoro-2-(4-methylbenzoylimino)benzo[d]thiazol-3(2H)-yl]butanoic acid]	102.7	33.2	88.5	17.6
Cc1ccc(C(=O)N=c2sc3c(Cl)cccc3n2C(C)C(=O)O)cc1 (centres unmarked) [Example 109, 2-[7-chloro-2-(4-methylbenzoylimino)benzo[d]thiazol-3(2H)-yl]propionic acid]	98.2	30.2	102.0	57
CC(C(=O)O)n1c(=NC(=O)c2cccc(C(F)(F)F)c2)sc2ccccc21 (centres unmarked) [Example 133, 2-{2-[3-(trifluoromethyl)benzoylimino]benzo[d]thiazol-3(2H)-yl}propionic acid]	92.8	33.2	82.1	11.4
CCC(C(=O)O)n1c(=NC(=O)c2cccc(Cl)c2)sc2ccccc21 (centres unmarked) [Example 139, 2-[2-(3-chlorobenzoylimino)benzo[d]thiazol-3(2H)-yl]butanoic acid]	102.1	31.5	79.4	18.9
CCC(C(=O)O)n1c(=NC(=O)c2cccc(C(F)(F)F)c2)sc2ccccc21 (centres unmarked) [Example 142, 2-[2-(3-(trifluoromethyl)benzoylimino)benzo[d]thiazol-3(2H)-yl]butanoic acid]	106.5	39.4	95.0	14.7
CCC(C(=O)O)n1c(=NC(=O)c2ccc(OC)cc2)sc2cc(OC(F)(F)F)ccc21 (centres unmarked) [Example 507]	99.0	45.9	99.3	–
CCC(C(=O)O)n1c(=NC(=O)c2cccc(OC)c2)sc2c(F)cccc21 (centres unmarked) [Example 532]	97.3	43.7	98.6	–
CCC(C(=O)O)n1c(=NC(=O)c2ccc(OC)cc2)sc2c(F)cccc21 (centres unmarked) [Example 533]	98.3	39.0	94.8	–
CCC(C(=O)O)n1c(=NC(=O)c2ccc(OC)cc2)sc2c(F)c(F)ccc21 (centres unmarked) [Example 585]	84.0	46.3	95.8	–

The remaining lines, values ahead:

Yeast cell proliferation rates KRS-AIMP3 (%) [1] [%]	Yeast cell proliferation rates KRS-LR (%) [2] [%]	Yeast cell proliferation rates KRS-AIMP2 (%) [3] [%]	IC50 (A549 cells) [µM]	SMILES
100.0	29.7	102.4	16.7	CCC(C(=O)O)n1c(=NC(=O)c2ccc(C)cc2)sc2cc(C(F)(F)F)ccc21 (centres unmarked) [Example 155, 2-[2-(4-methylbenzoylimino)-6-(trifluoromethyl)benzo[d]thiazol-3(2H)-yl]butanoic acid]
104.1	36.3	90.0	37.9	CC(C(=O)O)n1c(=NC(=O)c2cccc(Cl)c2)sc2cc(C(F)(F)F)ccc21 (centres unmarked) [Example 172, 2-(2-((3-chlorobenzoyl)imino)-6-(trifluoromethyl)benzo[d]thiazol-3(2H)-yl)propionic acid]
105.4	15.9	100.2	6.5	CCC(C(=O)O)n1c(=NC(=O)c2cccc(Cl)c2)sc2c(Cl)cccc21 (centres unmarked) [Example 310, 2-(7-chloro-2-((3-chlorobenzoyl)imino)benzo[d]thiazol-3(2H)-yl)butanoic acid]
99.0	14.6	89.6	36	O=C(O)Cn1c(=NC(=O)c2cccc(Cl)c2)sc2ccc(Cl)cc21 [Example 312, 2-(5-chloro-2-(3-chlorobenzoylimino)benzo[d]thiazol-3(2H)-yl)acetic acid]
107.2	12.6	104.0	81.3	CCC(C(=O)O)n1c(=NC(=O)c2cccc(Cl)c2)sc2c(F)c(F)ccc21 (centres unmarked) [Example 338, 2-(2-((3-chlorobenzoyl)imino)-6,7-difluorobenzo[d]thiazol-3(2H)-yl)butanoic acid]
99.1	11.6	108.2	25.4	CC(C(=O)O)n1c(=NC(=O)c2cccc(Cl)c2)sc2c(F)c(Cl)ccc21 (centres unmarked) [Example 385, 2-(6-chloro-2-((3-chlorobenzoyl)imino)-7-fluorobenzo[d]thiazol-3(2H)-yl)propionic acid]
86.1	29.6	91.0	–	CCOc1ccc2c(c1)sc(=NC(=O)c1ccc(F)cc1)n2C(CC)C(=O)O (centres unmarked) [Example 476, 2-(6-ethoxy-2-((4-fluorobenzoyl)imino)benzo[d]thiazol-3(2H)-yl)butanoic acid]
90.3	36.1	97.1	–	CCC(C(=O)O)n1c(=NC(=O)c2cccc(F)c2)sc2c(Cl)cccc21 (centres unmarked) [Example 543, 2-(7-chloro-2-((3-fluorobenzoyl)imino)benzo[d]thiazol-3(2H)-yl)butanoic acid]
93.0	49.3	99.0	–	CCC(C(=O)O)n1c(=NC(=O)c2cccc(F)c2)sc2c(F)c(F)ccc21 (centres unmarked) [Example 582, 2-(6,7-difluoro-2-((3-fluorobenzoyl)imino)benzo[d]thiazol-3(2H)-yl)butanoic acid]
